# Assay results taken from PMC4819005 (ACS chemical biology, 2015).
# Peptide text beside a SMILES is read from it.
# Legend:
# PPARγ = settings: cited from earlier work
# 3T3-L1 cells = assay: In vitro adipocyte differentiation, Oil Red O staining for lipid accumulation; assay type: cell-based; settings: differentiated 3T3-L1 preadipocytes, treated 2 or 3 days
# [1] = test system: aP2 (FABP4) mRNA in SVF cells; assay: qPCR of PPARγ target gene aP2; assay type: cell-based, murine; settings: 5 μM compound, 3 days, normalized to GAPDH
# [2] = Aggregation seen in SPR running buffer; assay type: physicochemical; settings: PBS + 5%DMSO
smiles,measurement,setting,value
N[C@@H](Cc1c[nH]c2ccccc12)C(=O)N[C@@H](CCC(=O)O)C(=O)O [G3335] (H-Trp-Glu-OH),kd,PPARγ,0.028 s⁻¹
"CCC(NC(=O)c1ccc2c(ccn2S(=O)(=O)c2cccc3ccccc23)c1)c1ccccc1 (stereo not shown) [SR2067, 1-(Naphthalen-1-ylsulfonyl)-N-(1-phenylpropyl)-1H-indole-5-carboxamide]",oil red staining for lipid accumulation,3T3-L1 cells,less than that of the full agonist rosiglitazone but higher than that of the antagonist SR1664
same,expression levels of the PPARγ target gene aP2,[1],lower than those observed in cells treated with the full agonist rosiglitazone but higher than those in cells exposed to the antagonist SR1664
"CN(CCOc1ccc(CC2SC(=O)NC2=O)cc1)c1ccccn1 (stereo not shown) [rosiglitazone, Rosiglitazone]",concentration above which concentration-dependent aggregation occurs,[2],above 30 μM
